Source: patent publication US10927123B2, “Modulators of the beta-3 adrenergic receptor useful for the treatment or prevention of disorders related thereto” (Arena Pharmaceuticals, Inc., priority 2016, dated 2021)

Target: Beta-3 Adrenergic Receptor (Homo sapiens (Human), UniProt P13945)
Test: HTRF cAMP antagonist assay (IC50 determination)
Assay type: cell-based
Conditions: CHO-K1 cells stably expressing recombinant receptor; antagonism of isoproterenol at EC90; cAMP readout
Summary of the method: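 Antagonist mode: isoproterenol at its predetermined EC90 added after compound to recombinant CHO-K1 cells in IBMX-containing PBS, 1 h, room temperature. Compounds tested as 5-fold, 10-point dilutions, top final typically 10 or 100 μM. HTRF signal converted to cAMP via standard curve, giving IC50.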

Chain of Beta-3 Adrenergic Receptor (P13945 whole entry, species assumed): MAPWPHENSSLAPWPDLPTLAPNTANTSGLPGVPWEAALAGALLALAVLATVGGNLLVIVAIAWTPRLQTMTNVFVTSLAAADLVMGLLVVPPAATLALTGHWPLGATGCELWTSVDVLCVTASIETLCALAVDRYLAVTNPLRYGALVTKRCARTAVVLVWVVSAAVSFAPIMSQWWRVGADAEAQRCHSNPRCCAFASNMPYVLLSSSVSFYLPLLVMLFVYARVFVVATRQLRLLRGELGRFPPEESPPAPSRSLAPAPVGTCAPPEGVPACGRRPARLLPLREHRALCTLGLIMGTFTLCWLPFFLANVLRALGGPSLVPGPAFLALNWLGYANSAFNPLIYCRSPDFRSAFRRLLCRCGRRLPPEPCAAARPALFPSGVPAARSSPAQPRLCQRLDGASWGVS

Row | SMILES | IC50 [nM]
1 | NC1(c2ccc(-c3cc(S(=O)(=O)N4CCC5(CC4)C[C@H](NC[C@H](O)COc4cccc(S(=O)(=O)C6(CO)CC6)c4)CO5)ccc3F)cc2)CC1 [Compound 219, (S)-1-((S)-8-(4′-(1-aminocyclopropyl)-6-fluorobiphenyl-3-ylsulfonyl)-1-oxa-8-azaspiro[4.5]decan-3-ylamino)-3-(3-(1-(hydroxymethyl)cyclopropylsulfonyl)phenoxy)propan-2-ol] | 21.6
2 | CCOc1ccc(-c2ccc(CN)c(F)c2)cc1S(=O)(=O)N1CCC2(CC1)C[C@H](NC[C@H](O)COc1cccc(S(=O)(=O)C3(CO)CC3)c1)CO2 [Compound 220, (S)-1-((S)-8-(4′-(aminomethyl)-4-ethoxy-3′-fluorobiphenyl-3-ylsulfonyl)-1-oxa-8-azaspiro[4.5]decan-3-ylamino)-3-(3-(1-(hydroxymethyl)cyclopropylsulfonyl)phenoxy)propan-2-ol] | 27.5
3 | O=S(=O)(c1cnc(Cl)c(Br)c1)N1CCC2(CC1)C[C@@H](NC[C@H](O)COc1cccc(S(=O)(=O)C3(CO)CC3)c1)CO2 [Compound 221, (S)-1-((R)-8-(5-bromo-6-chloropyridin-3-ylsulfonyl)-1-oxa-8-azaspiro[4.5]decan-3-ylamino)-3-(3-(1-(hydroxymethyl)cyclopropylsulfonyl)phenoxy)propan-2-ol] | 20.6
4 | CN1CCN(C)c2ncc(S(=O)(=O)N3CCC4(CC3)C[C@@H](NC[C@H](O)COc3cccc(S(=O)(=O)C5(CO)CC5)c3)CO4)cc21 [Compound 222, (S)-1-((R)-8-(1,4-dimethyl-1,2,3,4-tetrahydropyrido[3,2-b]pyrazin-7-ylsulfonyl)-1-oxa-8-azaspiro[4.5]decan-3-ylamino)-3-(3-(1-(hydroxymethyl)cyclopropylsulfonyl)phenoxy)propan-2-ol] | 47.6
5 | COc1ccc(S(=O)(=O)N2CCC3(CC2)C[C@H](NC[C@H](O)COc2cccc(S(=O)(=O)C(C)(C)CO)c2)CO3)cc1-c1ccc(CN)cc1 [Compound 223, 2-(3-((S)-3-((S)-8-(4′-(aminomethyl)-6-methoxybiphenyl-3-ylsulfonyl)-1-oxa-8-azaspiro[4.5]decan-3-ylamino)-2-hydroxypropoxy)phenylsulfonyl)-2-methylpropan-1-ol] | 83.6
6 | COc1ccc(S(=O)(=O)N2CCC3(CC2)C[C@H](NC[C@H](O)COc2cccc(S(=O)(=O)C(C)(C)CO)c2)CO3)cc1-c1ccc(C2(N)CC2)cc1 [Compound 224, 2-(3-((S)-3-((S)-8-(4′-(1-aminocyclopropyl)-6-methoxybiphenyl-3-ylsulfonyl)-1-oxa-8-azaspiro[4.5]decan-3-ylamino)-2-hydroxypropoxy)phenylsulfonyl)-2-methylpropan-1-ol] | 73.2
7 | COc1ccc(S(=O)(=O)N2CCC3(CC2)C[C@H](NC[C@H](O)COc2cccc(S(=O)(=O)C4(CO)CC4)c2)CO3)cc1-c1ccc(C2(N)CC2)cc1 [Compound 225, (S)-1-((S)-8-(4′-(1-aminocyclopropyl)-6-methoxybiphenyl-3-ylsulfonyl)-1-oxa-8-azaspiro[4.5]decan-3-ylamino)-3-(3-(1-(hydroxymethyl)cyclopropylsulfonyl)phenoxy)propan-2-ol] | 33.1
8 | CCOc1ccc(-c2ccc(CN)cc2)cc1S(=O)(=O)N1CCC2(CC1)C[C@H](NC[C@H](O)COc1cccc(S(=O)(=O)CC)c1)CO2 [Compound 226, (S)-1-((S)-8-(4′-(aminomethyl)-4-ethoxybiphenyl-3-ylsulfonyl)-1-oxa-8-azaspiro[4.5]decan-3-ylamino)-3-(3-(ethylsulfonyl)phenoxy)propan-2-ol] | 12.5
9 | COc1ccc(S(=O)(=O)N2CCC3(CC2)C[C@H](NC[C@H](O)COc2cccc(S(=O)(=O)C4CC4)c2)CO3)cc1-c1ccc(CN)cc1 [Compound 227, (S)-1-((S)-8-(4′-(aminomethyl)-6-methoxybiphenyl-3-ylsulfonyl)-1-oxa-8-azaspiro[4.5]decan-3-ylamino)-3-(3-(cyclopropylsulfonyl)phenoxy)propan-2-ol] | 17.9
10 | COc1c(-c2ccc(CN)cc2)cccc1S(=O)(=O)N1CCC2(CC1)C[C@H](NC[C@H](O)COc1cccc(S(=O)(=O)C3CC3)c1)CO2 [Compound 228, (S)-1-((S)-8-(4′-(aminomethyl)-2-methoxybiphenyl-3-ylsulfonyl)-1-oxa-8-azaspiro[4.5]decan-3-ylamino)-3-(3-(cyclopropylsulfonyl)phenoxy)propan-2-ol] | 29.1
11 | COc1cc(-c2ccc(CN)cc2)cc(S(=O)(=O)N2CCC3(CC2)C[C@H](NC[C@H](O)COc2cccc(S(=O)(=O)C4CC4)c2)CO3)c1 [Compound 229, (S)-1-((S)-8-(4′-(aminomethyl)-5-methoxybiphenyl-3-ylsulfonyl)-1-oxa-8-azaspiro[4.5]decan-3-ylamino)-3-(3-(cyclopropylsulfonyl)phenoxy)propan-2-ol] | 11.6
12 | CCOc1ccc(-c2ccc(CN)cc2)cc1S(=O)(=O)N1CCC2(CC1)C[C@H](NC[C@H](O)COc1cccc(S(=O)(=O)COC)c1)CO2 [Compound 230, (S)-1-((S)-8-(4′-(aminomethyl)-4-ethoxybiphenyl-3-ylsulfonyl)-1-oxa-8-azaspiro[4.5]decan-3-ylamino)-3-(3-(methoxymethylsulfonyl)phenoxy)propan-2-ol] | 15
13 | CCOc1ccc(-c2ccc(CN)cc2)cc1S(=O)(=O)N1CCC2(CC1)C[C@H](NC[C@H](O)COc1cccc(S(C)(=O)=O)c1)CO2 [Compound 231, (S)-1-((S)-8-(4′-(aminomethyl)-4-ethoxybiphenyl-3-ylsulfonyl)-1-oxa-8-azaspiro[4.5]decan-3-ylamino)-3-(3-(methylsulfonyl)phenoxy)propan-2-ol] | 19.6
14 | CCOc1ccc(-c2ccc(CN)cc2)cc1S(=O)(=O)N1CCC2(CC1)C[C@H](NC[C@H](O)COc1cccc(S(=O)(=O)C(C)C)c1)CO2 [Compound 232, (S)-1-((S)-8-(4′-(aminomethyl)-4-ethoxybiphenyl-3-ylsulfonyl)-1-oxa-8-azaspiro[4.5]decan-3-ylamino)-3-(3-(isopropylsulfonyl)phenoxy)propan-2-ol] | 16.6
15 | CC(F)S(=O)(=O)c1cccc(OC[C@@H](O)CN[C@H]2COC3(CCN(S(=O)(=O)c4cnc5ccccc5c4)CC3)C2)c1 (stereo partly drawn) [Compound 233, (2S)-1-(3-(1-fluoroethylsulfonyl)phenoxy)-3-((R)-8-(quinolin-3-ylsulfonyl)-1-oxa-8-azaspiro[4.5]decan-3-ylamino)propan-2-ol] | 9.72
16 | CC(F)S(=O)(=O)c1cccc(OC[C@@H](O)CN[C@H]2COC3(CCN(S(=O)(=O)c4ccc5ncccc5c4)CC3)C2)c1 (stereo partly drawn) [Compound 234, (2S)-1-(3-(1-fluoroethylsulfonyl)phenoxy)-3-((R)-8-(quinolin-6-ylsulfonyl)-1-oxa-8-azaspiro[4.5]decan-3-ylamino)propan-2-ol] | 10.2
17 | CC(F)S(=O)(=O)c1cccc(OC[C@@H](O)CN[C@H]2COC3(CCN(S(=O)(=O)c4cnc5c(c4)N(C)CCO5)CC3)C2)c1 (stereo partly drawn) [Compound 235, (2S)-1-(3-(1-fluoroethylsulfonyl)phenoxy)-3-((R)-8-(1-methyl-2,3-dihydro-1H-pyrido[2,3-b][1,4]oxazin-7-ylsulfonyl)-1-oxa-8-azaspiro[4.5]decan-3-ylamino)propan-2-ol] | 15
18 | Cc1cc(=O)[nH]c2ccc(S(=O)(=O)N3CCC4(CC3)C[C@@H](NC[C@H](O)COc3cccc(S(=O)(=O)C5(CO)CC5)c3)CO4)cc12 [Compound 236, 6-((R)-3-((S)-2-hydroxy-3-(3-(1-(hydroxymethyl)cyclopropylsulfonyl)phenoxy)propylamino)-1-oxa-8-azaspiro[4.5]decan-8-ylsulfonyl)-4-methylquinolin-2(1H)-one] | 369
19 | CCOc1ccc(S(=O)(=O)N2CCC3(CC2)C[C@H](NC[C@H](O)COc2cccc(S(=O)(=O)C4(CO)CC4)c2)CO3)cc1-c1ccc(CN)cc1 [Compound 237, (S)-1-((S)-8-(4′-(aminomethyl)-6-ethoxybiphenyl-3-ylsulfonyl)-1-oxa-8-azaspiro[4.5]decan-3-ylamino)-3-(3-(1-(hydroxymethyl)cyclopropylsulfonyl)phenoxy)propan-2-ol] | 82
20 | COc1ccc(S(=O)(=O)N2CCC3(CC2)C[C@H](NC[C@H](O)COc2cccc(S(=O)(=O)C(F)(F)CO)c2)CO3)cc1-c1ccc(CN)cc1 [Compound 238, (S)-1-((S)-8-(4′-(aminomethyl)-6-methoxybiphenyl-3-ylsulfonyl)-1-oxa-8-azaspiro[4.5]decan-3-ylamino)-3-(3-(1,1-difluoro-2-hydroxyethylsulfonyl)phenoxy)propan-2-ol] | 22.8
21 | COc1ccc(S(=O)(=O)N2CCC3(CC2)C[C@H](NC[C@H](O)COc2cccc(S(=O)(=O)C(F)(F)CO)c2)CO3)cc1-c1ccc(C2(N)CC2)cc1 [Compound 239, (S)-1-((S)-8-(4′-(1-aminocyclopropyl)-6-methoxybiphenyl-3-ylsulfonyl)-1-oxa-8-azaspiro[4.5]decan-3-ylamino)-3-(3-(1,1-difluoro-2-hydroxyethylsulfonyl)phenoxy)propan-2-ol] | 30.9
22 | CC(C)(C)NCc1ccc(-c2cccc(S(=O)(=O)N3CCC4(CC3)C[C@H](NC[C@H](O)COc3cccc(S(=O)(=O)C5(CO)CC5)c3)CO4)c2)cc1 [Compound 240, (S)-1-((S)-8-(4′-((tert-butylamino)methyl)biphenyl-3-ylsulfonyl)-1-oxa-8-azaspiro[4.5]decan-3-ylamino)-3-(3-(1-(hydroxymethyl)cyclopropylsulfonyl)phenoxy)propan-2-ol] | 31.7
23 | CCC(C)(C)NCc1ccc(-c2cccc(S(=O)(=O)N3CCC4(CC3)C[C@H](NC[C@H](O)COc3cccc(S(=O)(=O)C5(CO)CC5)c3)CO4)c2)cc1 [Compound 241, (S)-1-(3-(1-(hydroxymethyl)cyclopropylsulfonyl)phenoxy)-3-((S)-8-(4′-((tert-pentylamino)methyl)biphenyl-3-ylsulfonyl)-1-oxa-8-azaspiro[4.5]decan-3-ylamino)propan-2-ol] | 21.1
